Results from patent US6914045B2, “Glycopeptide antibiotics” (Wyeth Holdings Corporation, priority 2001, dated 2005).
≈ marks a conversion by molar mass, not a printed value.

Assays:
Test in all cases: in vitro antibacterial evaluation, MIC by broth dilution
Format in all cases: cell-based
[1] = tested on: Staphylococcus sp.; conditions: broth dilution, 18 hours at 35° C.
Method in brief: (§1)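 Step 1: dilute antibiotic across 64-0.06 μg/mL in Muller-Hinton II […]. Step 2: inoculate at 5×10^5 CFU/mL.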

[2] = tested on: Streptococcus sp.; conditions: broth dilution, 18 hours at 35° C.
Method in brief: as §1

[3] = tested on: Enterococcus sp.; conditions: broth dilution, 18 hours at 35° C.
Method in brief: as §1

[4] = tested on: Escherichia coli; conditions: 18 hours at 35° C.
Method in brief: as §1

- MIC Staphylococcus aureus (ATCC 29213) [1]: 2 µg/mL (≈ 1.37 µM)
- MIC Staphylococcus aureus (GC 1131) [1]: 4 µg/mL (≈ 2.75 µM)
- MIC Staphylococcus aureus (GC 3051) [1]: 2 µg/mL (≈ 1.37 µM)
- MIC Staphylococcus aureus (GC 3053) [1]: 2 µg/mL (≈ 1.37 µM)
- MIC Staphylococcus aureus (GC 4541) [1]: 2 µg/mL (≈ 1.37 µM)
- MIC Staphylococcus aureus (GC 4542) [1]: 2 µg/mL (≈ 1.37 µM)
- MIC Staphylococcus aureus (GC 4544) [1]: 4 µg/mL (≈ 2.75 µM)
- MIC Staphylococcus aureus (GC 4545) [1]: 2 µg/mL (≈ 1.37 µM)
- MIC Staphylococcus aureus (GC 1131) ([1]; inoculum 5×10^5 CFU/mL, strain GC 1131): 4 µg/mL (≈ 2.75 µM)
- MIC Staphylococcus aureus (ATCC 29213) ([1]; strain ATCC 29213): 2 µg/mL (≈ 1.37 µM)
- MIC Staphylococcus aureus (GC 3051) ([1]; strain GC 3051): 2 µg/mL (≈ 1.37 µM)
- MIC Staphylococcus aureus (GC 3053) ([1]; strain GC 3053): 2 µg/mL (≈ 1.37 µM)
- MIC Staphylococcus aureus (GC 4541) ([1]; strain GC 4541): 2 µg/mL (≈ 1.37 µM)
- MIC Staphylococcus aureus (GC 4542) ([1]; strain GC 4542): 2 µg/mL (≈ 1.37 µM)
- MIC Staphylococcus aureus-SMITH (GC 4543) ([1]; strain GC 4543): 2 µg/mL (≈ 1.37 µM)
- MIC Staphylococcus aureus (GC 4544) ([1]; strain GC 4544): 4 µg/mL (≈ 2.75 µM)
- MIC Staphylococcus aureus (GC 4545) ([1]; strain GC 4545): 2 µg/mL (≈ 1.37 µM)
- MIC Coagulase Negative Staphylococcus (GC 4547) ([1]; strain GC 4547): 4 µg/mL (≈ 2.75 µM)
- MIC Coagulase Negative Staphylococcus (GC 4548) ([1]; strain GC 4548): 2 µg/mL (≈ 1.37 µM)
- MIC Coagulase Negative Staphylococcus (GC 4549) ([1]; strain GC 4549): 2 µg/mL (≈ 1.37 µM)
- MIC Coagulase Negative Staphylococcus (GC 4551) ([1]; strain GC 4551): 4 µg/mL (≈ 2.75 µM)
- MIC Coagulase Negative Staphylococcus (GC 6257) ([1]; strain GC 6257): 2 µg/mL (≈ 1.37 µM)
- MIC Staphylococcus aureus-SMITH (GC 4543) ([1]; strain SMITH GC 4543): 2 µg/mL (≈ 1.37 µM)
- MIC Streptococcus agalactiae (GC 4564) ([2]; Streptococcus agalactiae (GC 4564)): 0.25 µg/mL (≈ 0.172 µM)
- MIC Streptococcus pneumoniae (ATCC 6301) ([2]; Streptococcus pneumoniae (ATCC 6301)): 0.25 µg/mL (≈ 0.172 µM)
- MIC Streptococcus pneumoniae (GC 1894) ([2]; Streptococcus pneumoniae (GC 1894)): <0.06 µg/mL
- MIC Streptococcus pneumoniae (GC 4565) ([2]; Streptococcus pneumoniae (GC 4565)): 0.12 µg/mL (≈ 0.0824 µM)
- MIC Streptococcus pyogenes (GC 4563) ([2]; Streptococcus pyogenes (GC 4563)): 0.5 µg/mL (≈ 0.344 µM)
- MIC Streptococcus pneumoniae (ATCC 6301) ([2]; strain ATCC 6301): 0.25 µg/mL (≈ 0.172 µM)
- MIC Streptococcus pneumoniae (GC 1894) ([2]; strain GC 1894): <0.06 µg/mL
- MIC Streptococcus pyogenes (GC 4563) ([2]; strain GC 4563): 0.5 µg/mL (≈ 0.344 µM)
- MIC Streptococcus agalactiae (GC 4564) ([2]; strain GC 4564): 0.25 µg/mL (≈ 0.172 µM)
- MIC Streptococcus pneumoniae (GC 4565) ([2]; strain GC 4565): 0.12 µg/mL (≈ 0.0824 µM)
- MIC Enterococcus avium (GC 4558) ([3]; Enterococcus avium (GC 4558)): 4 µg/mL (≈ 2.75 µM)
- MIC Enterococcus faecalis (ATCC 29212) ([3]; Enterococcus faecalis (ATCC 29212)): 4 µg/mL (≈ 2.75 µM)
- MIC Enterococcus faecalis (GC 2242) ([3]; Enterococcus faecalis (GC 2242)): 4 µg/mL (≈ 2.75 µM)
- MIC Enterococcus faecalis (GC 2691) ([3]; Enterococcus faecalis (GC 2691)): 4 µg/mL (≈ 2.75 µM)
- MIC Enterococcus faecalis (GC 3059) ([3]; Enterococcus faecalis (GC 3059)): 4 µg/mL (≈ 2.75 µM)
- MIC Enterococcus faecalis (GC 4552) ([3]; Enterococcus faecalis (GC 4552)): 4 µg/mL (≈ 2.75 µM)
- MIC Enterococcus faecalis (GC 4553) ([3]; Enterococcus faecalis (GC 4553)): 4 µg/mL (≈ 2.75 µM)
- MIC Enterococcus faecalis (GC 4554) ([3]; Enterococcus faecalis (GC 4554)): 4 µg/mL (≈ 2.75 µM)
- MIC Enterococcus faecalis (GC 6189) ([3]; Enterococcus faecalis (GC 6189)): 4 µg/mL (≈ 2.75 µM)
- MIC Enterococcus faecium (GC 2243) ([3]; Enterococcus faecium (GC 2243)): 4 µg/mL (≈ 2.75 µM)
- MIC Enterococcus faecium (GC 4556) ([3]; Enterococcus faecium (GC 4556)): 4 µg/mL (≈ 2.75 µM)
- MIC Enterococcus faecium (GC 4557) ([3]; Enterococcus faecium (GC 4557)): 4 µg/mL (≈ 2.75 µM)
- MIC Enterococcus faecalis (ATCC 29212) ([3]; strain ATCC 29212): 4 µg/mL (≈ 2.75 µM)
- MIC Enterococcus faecalis (GC 2242) ([3]; strain GC 2242): 4 µg/mL (≈ 2.75 µM)
- MIC Enterococcus faecium (GC 2243) ([3]; strain GC 2243): 4 µg/mL (≈ 2.75 µM)
- MIC Enterococcus faecalis (GC 2691) ([3]; strain GC 2691): 4 µg/mL (≈ 2.75 µM)
- MIC Enterococcus faecalis (GC 3059) ([3]; strain GC 3059): 4 µg/mL (≈ 2.75 µM)
- MIC Enterococcus faecalis (GC 4552) ([3]; strain GC 4552): 4 µg/mL (≈ 2.75 µM)
- MIC Enterococcus faecalis (GC 4553) ([3]; strain GC 4553): 4 µg/mL (≈ 2.75 µM)
- MIC Enterococcus faecalis (GC 4554) ([3]; strain GC 4554): 4 µg/mL (≈ 2.75 µM)
- MIC Enterococcus faecium (GC 4556) ([3]; strain GC 4556): 4 µg/mL (≈ 2.75 µM)
- MIC Enterococcus faecium (GC 4557) ([3]; strain GC 4557): 4 µg/mL (≈ 2.75 µM)
- MIC Enterococcus avium (GC 4558) ([3]; strain GC 4558): 4 µg/mL (≈ 2.75 µM)
- MIC Enterococcus faecalis (GC 6189) ([3]; strain GC 6189): 4 µg/mL (≈ 2.75 µM)
- MIC Escherichia coli (ATCC 25922) ([4]; strain ATCC 25922): 32 µg/mL (≈ 22 µM)
- MIC Escherichia coli (GC 4559) ([4]; strain GC 4559): 32 µg/mL (≈ 22 µM)
- MIC Escherichia coli (GC 4560) ([4]; strain GC 4560): 4 µg/mL (≈ 2.75 µM)
SMILES: CC(c1ccccc1)C1NC(=O)CNC(=O)C(CO)NC(=O)C(C(O)C2CNC(=N)N2C2OC(CO)C(O)C(O)C2O)NC(=O)C(C(O)C2CNC(=N)N2)NC(=O)C(Cc2ccc(OC3OC(CO)C(OC4OC(CO)C(O)C5OC(CC67CC8CC(CC(C8)C6)C7)OC45)C(O)C3O)cc2)NC1=O (stereo not shown) [Example 128]
- MIC Staphylococcus haemolyticus (GC 4546) ([1]; strain GC 4546): 2 µg/mL (≈ 1.37 µM)
